Tests used:
[1] = type: physicochemical
Protocol: In order to investigate applicability of the compound (o) obtained in Example 7-c to a wet process, a solubility test of the compound in various solvents was conducted. In addition, a solubility test of pentacene was also conducted as reference.
Specifically, 20 mg of a sample was weighed and it was visually judged whether it dissolves in 10 g of a solvent at room temperature (0.2% by weight).

melting point | SMILES | Solubility in Chloroform [1] | Solubility in Cyclohexane [1] | Solubility in Hexane [1] | Solubility in THF [1] | Solubility in Toluene [1] | Solubility in o-Dichlorobenzene [1]
215 to 215.5 °C | FC(F)(F)c1c2ccc(C#Cc3ccccc3)cc2c(C(F)(F)F)c2ccc(C#Cc3ccccc3)cc12 [Compound (b1), 2,6-bis(phenylethynyl)-9,10-bis(trifluoromethyl)anthracene] |  |  |  |  |  | 
 | c1ccc2cc3cc4cc5ccccc5cc4cc3cc2c1 [Pentacene, pentacene, reference compound] | No | No | No | No | No | No
123.5 to 124.1 °C | COc1ccc(C#Cc2ccc3c(C(F)(F)F)c4ccccc4c(C(F)(F)F)c3c2)cc1 [Compound (a1), 2-[(4-methoxyphenyl)ethynyl]-9,10-bis(trifluoromethyl)anthracene] |  |  |  |  |  | 
 | FC(F)(F)c1c2cc3ccccc3cc2c(C(F)(F)F)c2cc3ccccc3cc12 [Compound (o)] | Yes | Yes | Yes | Yes | Yes | Yes

Reference: patent US9087996B2, “Fluorine-containing aromatic compound and production method thereof” (Asahi Glass Company, Limited, priority 2012, dated 2015)
